Data on 20 compounds can be found in patent publication US20250268903A1, “RXFP1 AGONISTS” (BRISTOL-MYERS SQUIBB COMPANY, priority 2021, published 2025).

The term EC50 denotes the concentration at which the effect is half-maximal. Lower therefore signals an effect from little substance.

The target of this experiment is T1, human RXFP1 (Homo sapiens, UniProt Q9HBX9).
T1 construct: expressed in transfected cells
T1 sequence (Q9HBX9 1-757): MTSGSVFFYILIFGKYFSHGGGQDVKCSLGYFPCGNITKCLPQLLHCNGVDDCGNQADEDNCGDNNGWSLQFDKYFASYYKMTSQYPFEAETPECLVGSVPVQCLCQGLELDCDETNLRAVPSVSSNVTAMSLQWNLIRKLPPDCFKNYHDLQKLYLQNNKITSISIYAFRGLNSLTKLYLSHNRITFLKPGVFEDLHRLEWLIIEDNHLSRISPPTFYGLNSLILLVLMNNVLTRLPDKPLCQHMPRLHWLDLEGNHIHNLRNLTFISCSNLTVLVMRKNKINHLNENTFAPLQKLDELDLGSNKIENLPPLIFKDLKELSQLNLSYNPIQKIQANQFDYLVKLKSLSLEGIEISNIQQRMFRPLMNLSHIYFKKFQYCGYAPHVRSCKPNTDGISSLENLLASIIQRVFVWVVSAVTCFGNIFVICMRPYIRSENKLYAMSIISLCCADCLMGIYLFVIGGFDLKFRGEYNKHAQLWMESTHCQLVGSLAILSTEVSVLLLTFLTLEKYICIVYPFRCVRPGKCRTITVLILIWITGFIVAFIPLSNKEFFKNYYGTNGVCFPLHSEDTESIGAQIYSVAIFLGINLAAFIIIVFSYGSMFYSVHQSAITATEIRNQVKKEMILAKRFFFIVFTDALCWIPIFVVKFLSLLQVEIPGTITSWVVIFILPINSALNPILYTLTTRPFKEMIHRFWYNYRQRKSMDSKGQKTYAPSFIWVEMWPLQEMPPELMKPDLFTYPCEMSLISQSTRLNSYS
The experiment in a line: hRXFP1 HEK293 cAMP assay (HTRF). Format: cell-based. Particulars: HEK293 cells stably expressing human RXFP1, 30 min at room temperature. An outline of the steps: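 HEK293 cells stably expressing human RXFP1 were suspended in HBSS (Ca/Mg) with 20 mM HEPES, 0.05% BSA and 0.5 mM IBMX, then treated with compounds (0.010 nM–50 μM, 2% DMSO final) for 30 min at room temperature. Intracellular cAMP was measured by HTRF, and potency was derived from 4-parameter logistic fits.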
`COc1ccc(/C=C/C(=O)N2CCC(C#N)CC2)cc1C(=O)N[C@H]1[C@@H](C(=O)Nc2ccc(F)c(C(F)(F)F)c2)[C@H]2CC[C@@H]1/C2=C\C1CC1` [Example 316, (1R,2S,3R,4R,7Z)-3-{5-[(1E)-3-(4-cyanopiperidin-1-yl)-3-oxoprop-1-en-1-yl]-2-methoxybenzamido}-7-(cyclopropylmethylidene)-N-[4-fluoro-3-(trifluoromethyl)phenyl]bicyclo[2.2.1] heptane-2-carboxamide]: the response was half-maximal at 96.7 nM (EC50).

Regarding `COc1c(F)cc(C(=O)N2CC(S(C)(=O)=O)C2)cc1C(=O)N[C@H]1[C@@H](C(=O)Nc2ccc(F)c(C(F)(F)F)c2)[C@H]2CC[C@@H]1/C2=C\C1CCCC1` [Example 365, (1R,2S,3R,4R,7Z)-7-(cyclopentyl-methylidene)-N-[4-fluoro-3-(trifluoromethyl)phenyl]-3-[3-fluoro-5-(3-methanesulfonyl-azetidine-1-carbonyl)-2-methoxybenzamido] bicyclo[2.2.1]heptane-2-carboxamide], the EC50 was 2.8 nM.

`COc1ccc(C(=O)OC(C)(C)C)cc1C(=O)N[C@H]1[C@@H](C(=O)Nc2ccc(F)c(C(F)(F)F)c2)[C@H]2CC[C@@H]1/C2=C\C1CC1` [Example 227] returned a half-maximal effective concentration (EC50) of 77.2 nM.

`COc1ccc(CCCCCCC#N)cc1C(=O)NC1C2CCC(/C2=C/C(F)(F)F)[C@@H]1C(=O)Nc1ccc(F)c(C(F)(F)F)c1` (some centres unmarked) [Example 184, (7Z)-3-[5-(6-cyanohexyl)-2-methoxybenzamido]-N-[4-fluoro-3-(trifluoromethyl)phe-nyl]-7-(2,2,2-trifluoroethylidene)bi-cyclo[2.2.1]heptane-2-carboxamide] registered a concentration giving a half-maximal response (EC50) of 252 nM.

The compound `COc1ccc(CCC(=O)NC2CCC2)cc1C(=O)NC1C2CCC(/C2=C/C(F)(F)F)[C@@H]1C(=O)Nc1ccc(F)c(C(F)(F)F)c1` (stereo partly drawn) [Example 139, (2S,3R,7Z)-3-{5-[2-(cyclobutylcarbamoyl)ethyl]-2-methoxybenzamido}-N-[4-fluoro-3-(trifluoromethyl)phe-nyl]-7-(2,2,2-trifluoroethylidene)bi-cyclo[2.2.1]heptane-2-carboxamide] returned a half-maximal effective concentration (EC50) of 694 nM.

`COc1ccc(C(C)(C)CCO)cc1C(=O)N[C@H]1[C@@H](C(=O)Nc2ccc(F)c(C(F)(F)F)c2)[C@H]2CC[C@@H]1/C2=C\C(F)(F)F` [Example 272, (1R,2S,3R,4R,7Z)-N-[4-fluoro-3-(trifluoromethyl)phenyl]-3-[5-(4-hydroxy-2-methylbutan-2-yl)-2-methoxybenzamido]-7-(2,2,2-trifluoroethylidene) bicyclo[2.2.1]heptane-2-carboxamide]: the EC50 was found to be 422 nM.

With `COc1ccc(C(=O)N2CC3CCC(C2)O3)cc1C(=O)N[C@H]1[C@@H](C(=O)Nc2ccc(F)c(C(F)(F)F)c2)[C@H]2CC[C@@H]1/C2=C\C1CC1` [Example 259, (1R,2S,3R,4R,7Z)-7-(cyclopropylmethylidene)-N-[4-fluoro-3-(trifluoromethyl)phenyl]-3-(2-methoxy-5-{8-oxa-3-azabicyclo[3.2.1]octane-3-carbonyl}benzamido) bicyclo[2.2.1] heptane-2-carboxamide], the midpoint of the response, the EC50, lay at 367 nM.

With `COc1ccc(CCCO)cc1C(=O)NC1C2CCC(/C2=C/C2CCCOC2)[C@@H]1C(=O)Nc1ccc(F)c(C(F)(F)F)c1` (single isomer, unassigned) [Example 171, (7Z)-N-[4-fluoro-3-(trifluoromethyl)phe-nyl]-3-[5-(3-hydroxypropyl)-2-methoxybenzamido]-7-[(oxan-3-yl)methylidene]bicy-clo[2.2.1]heptane-2-carboxamide], the response was half-maximal at 397 nM (EC50).

`COc1ccc(C#CCCCO)cc1C(=O)N[C@@H]1C2CCC(/C2=C/C(F)(F)F)[C@@H]1C(=O)Nc1ccc(F)c(C(F)(F)F)c1` (stereo partly drawn) [Example 77, (2S,3R,7Z)-N-[4-fluoro-3-(trifluoromethyl)phe-nyl]-3-[5-(5-hydroxypent-1-yn-1-yl)-2-methoxybenzamido]-7-(2,2,2-trifluoroethylidene)bi-cyclo[2.2.1]heptane-2-carboxamide]: the response was half-maximal at 62 nM (EC50).

Regarding `COc1ccc(/C=C/C(=O)N[C@H]2C[C@H](O)C2)cc1C(=O)NC1C2CCC(/C2=C/C(F)(F)F)[C@@H]1C(=O)Nc1ccc(F)c(C(F)(F)F)c1` (stereo partly drawn) [Example 131, (2S,3R,7Z)-N-[4-fluoro-3-(trifluoromethyl)phe-nyl]-3-{2-methoxy-5-[(1E)-2-{[(1r,3r)-3-hydroxycyclobutyl]car-bamoyl}eth-1-en-1-yl]benzamido}-7-(2,2,2-trifluoroethylidene)bi-cyclo[2.2.1]heptane-2-carboxamide], the half-maximal effective concentration (EC50) was 264 nM.

Take `COc1ccc(C2CC2C(=O)N2CCC(O)CC2)cc1C(=O)N[C@H]1[C@@H](C(=O)Nc2ccc(F)c(C(F)(F)F)c2)[C@H]2CC[C@@H]1/C2=C\C(F)(F)F` (single isomer, unassigned) [Example 326]: the concentration giving a half-maximal response (EC50) is 4010 nM.

As to `COc1ccc(C2CC(CO)C2)cc1C(=O)N[C@H]1[C@@H](C(=O)Nc2ccc(F)c(C(F)(F)F)c2)[C@H]2CC[C@@H]1/C2=C\C1CC1` (stereo partly drawn) [Example 333, (1R,2S,3R,4R,7Z)-7-(cyclopropyl-methylidene)-N-[4-fluoro-3-(trifluoromethyl)phenyl]-3-[5-[3-(hydroxymethyl)cyclobutyl]-2-methoxybenzamido} bicyclo[2.2.1]heptane-2-carboxamide], the EC50 was found to be 62.3 nM.

Consider `COc1ccc(Cc2ccc(F)cc2)cc1C(=O)N[C@H]1[C@@H](C(=O)Nc2ccc(F)c(C(F)(F)F)c2)[C@H]2CC[C@@H]1/C2=C\C(F)(F)F` [Example 155, (1R,2S,3R,4R,Z)—N-(4-fluoro-3-(trifluoromethyl)phenyl)-3-(5-(4-fluorobenzyl)-2-methoxybenzamido)-7-(2,2,2-trifluoroethylidene) bicyclo[2.2.1]heptane-2-carboxamide], for which a half-maximal response (EC50) required 427 nM.

In the case of `COc1ccc(/C=C(/C)C(=O)N2CCC(O)CC2)cc1C(=O)N[C@H]1[C@@H](C(=O)Nc2ccc(F)c(C(F)(F)F)c2)[C@H]2CC[C@@H]1/C2=C\C(F)(F)F` [Example 319], it took 1120 nM to reach a half-maximal effect (EC50).

With `COc1ccc(COC[C@@H]2C[C@@H]2C(=O)OCc2ccccc2)cc1C(=O)N[C@H]1[C@@H](C(=O)Nc2ccc(F)c(C(F)(F)F)c2)[C@H]2CC[C@@H]1/C2=C\C1CC1` [Example 287, benzyl (1S, 2R)-2-{[(3-{[(1R,3S,4R,7Z)-7-(cyclopropylmethylidene)-3-{[4-fluoro-3-(trifluoromethyl)phenyl]carbamoyl}bicyclo[2.2.1]heptan-2-yl]carbamoyl}-4-methoxyphenyl)methoxy]methyl} cyclopropane-1-carboxylate], the EC50 worked out at 1290 nM.

`COc1ccc(S(=O)(=O)N2CCN(CCCO)CC2)cc1C(=O)N[C@H]1[C@@H](C(=O)Nc2ccc(F)c(C(F)(F)F)c2)[C@H]2CC[C@@H]1/C2=C\C(F)(F)F` [Example 211, (1R,2S,3R,4R,7Z)-N-[4-fluoro-3 (trifluoromethyl)phenyl]-3-(5-{[4-(3-hydroxypropyl)piperazin-1-yl]sulfonyl}-2-methoxybenzamido)-7-(2,2,2-trifluoroethylidene) bicyclo[2.2.1] heptane-2-carboxamide] returned an EC50 of 551 nM.

Compound `COc1ccc(CCC(=O)O)cc1C(=O)N[C@@H]1C2CCC(/C2=C/C(F)(F)F)[C@@H]1C(=O)Nc1ccc(F)c(C(F)(F)F)c1` (stereo partly drawn) [Example 9, 3-(3-{[(2R,3S,7Z)-3-{[4-fluoro-3-(trifluoromethyl)phenyl]carbamoyl}-7-(2,2,2-trifluoroethylidene)bicyclo[2.2.1]heptan-2-yl]carbamoyl}-4-methoxyphenyl) propanoic acid] returned an EC50 of 255 nM.

On to `COC(=O)[C@@H]1CCN(C(=O)Cc2ccc(OC)c(C(=O)NC3C(C(=O)Nc4ccc(F)c(C(F)(F)F)c4)[C@H]4CC[C@@H]3/C4=C\C3CC3)c2)C1` (some centres unmarked) [Example 356], for which the EC50 is 4020 nM.

Turning to `COc1ccc(S(=O)(=O)N2CCN3C(=O)CCC3C2)cc1C(=O)N[C@H]1[C@@H](C(=O)Nc2ccc(F)c(C(F)(F)F)c2)[C@H]2CC[C@@H]1/C2=C\C(F)(F)F` (stereo partly drawn) [Example 210, (1R,2S,3R,4R,7Z)-N-[4-fluoro-3-(trifluoromethyl)phenyl]-3-[2-methoxy-5-({6-oxo-octabydropyrrolo [1,2-a]piperazin-2-yl}sulfonyl)benzamido]-7-(2,2,2-trifluoroethylidene) bicyclo[2.2.1] heptane-2-carboxamide], the EC50 came to 237 nM.

`COc1ccc(C(=O)NC(C)(C)CO)cc1C(=O)N[C@H]1[C@@H](C(=O)Nc2ccc(F)c(C(F)(F)F)c2)[C@H]2CC[C@@H]1/C2=C\C1CC1` [Example 239, N3-[(1R,2R,3S,4R,7Z)-7-(cyclopropyl-methylidene)-3-{[4-fluoro-3-(trifluoromethyl)phenyl]carbamoyl}bicyclo[2.2.1]heptan-2-yl]-N1-(1-hydroxy-2-methylpropan-2-yl)-4-methoxybenzene-1,3-dicarboxamide] had an EC50 of 27.8 nM.
